# Experimental data from patent publication US20250304567A1, “PYRROLIDIONE DERIVATIVES AS INHIBITORS OF NF KAPPA B INDUCING KINASE” (priority 2022, published 2025).
# Columns and labels:
# [1] = target: Recombinant Human NF-kappaB-Inducing Kinase (NIK/MAP3K14) (Homo sapiens, UniProt Q99558); test: Inhibition of auto-phosphorylation of recombinant human NIK/MAP3K14 activity (AlphaScreen); type: biochemical; settings: 5 μM ATP, 1 nM NIK, average if tested more than once
# Procedure: Assay 1: Inhibition of Auto-Phosphorylation of Recombinant Human NF-kappaB-Inducing Kinase (NIK/MAP3K14) Activity (AlphaScreen™)
# NIK/MAP3K14 auto-phosphorylation activity was measured using the AlphaScreen™ (αscreen) format (Perkin Elmer). All compounds tested were dissolved in dimethyl sulfoxide (DMSO) and further dilutions were made in assay buffer. The final DMSO concentration was 0.7% (v/v) in assays. The assay buffer was 50 mM Tris pH 7.5 containing 1 mM EGTA (ethylene glycol tetraacetic acid), 1 mM DTT (dithiothreitol), 0.1 mM Na3VO4, 5 mM MgCl2, and 0.01% Tween®20. The assays were carried out in 384 well Proxiplates (Perkin Elmer). The incubations consisted of the compound, 5 μM Adenosine-5′-triphosphate (ATP), and 1 nM NIK/MAP3K14. Incubations were initiated by the addition of GST-tagged NIK/MAP3K14 enzyme, carried out for 2 h at 25° C. and terminated by addition of stop buffer containing anti-phospho-IKK Ser176/180 antibody. Protein A Acceptor and Glutathione-Donor beads were added before reading using an EnVision Multilabel Plate Reader (Perkin Elmer). The signal obtained in the wells was normalized using high (full enzyme activity, 0.7% DMSO) and low controls (no enzyme activity, 0.7% DMSO, no ATP). IC50's were determined by fitting a sigmoidal curve to % inhibition of control versus Log10 compound concentration.
# [2] = system: p-IKKa levels in L363 (NIK translocated multiple myeloma) cells; test: Effect of compounds on p-IKKa levels in L363 (NIK translocated multiple myeloma) cells (AlphaLISA SureFire Ultra p-IKKa Ser176/180); type: cell-based, human; settings: Homo sapiens, L-363, p-IKKa levels in L363 cells; average if tested more than once; read-out: Assay 2 IC50
# Procedure: Assay 2: Effect of Compounds on p-IKKa Levels in L363 (NIK Translocated Multiple Myeloma) Cells
# All compounds tested were dissolved and serially diluted in DMSO, 1:3 dilution for 11 points in an Echo compatible plate. 100% DMSO was added to columns 12 and 24 of the plate to serve as high and low signal controls. This compound plate was used to spot 20 nL of compound or DMSO into a Greiner 384 well TC plate (781080). The final DMSO concentration was 0.3% (v/v) in cell assays. Human L363 cells (ATCC) were cultured in RPM11640 medium supplemented with GlutaMax, non-essential amino acids, sodium pyruvate and 10% fetal bovine serum. Cells were routinely maintained at densities of 0.2×10^6 cells per ml-2×10^6 cells per mL at 37° C. in a humidified 5% CO2 atmosphere incubator. Cells were passaged twice a week splitting back to obtain the low density. The day before the assay, cells were washed twice in HBSS (Hank's Balanced Salt Solution), resuspended in Dulbecco's Modified Eagle Medium (DMEM)+0.5% IgG and protease free BSA (Jackson Immuno Research Laboratories), +/−250 ng/ml recombinant human B-cell activating factor (BAFF/BLyS/TNFSF13B) and incubated overnight at 37° C. in a humidified 5% CO2 atmosphere (bulk stimulation with or without BAFF). The next day, the cell concentration was adjusted to 1×10^7 cells/ml in DMEM+/−250 ng/ml BAFF+/−10 μM MG132 and plated at 10 μl/well into compound or DMSO spotted 384 well TC plates. Seeded cells were incubated at 37° C. in a humidified 5% CO2 atmosphere for 6 h. After 6 h, the plates were removed from the incubator and cell lysis was achieved by the addition of 2.5 μl 5× lysis buffer containing protease and phosphatase inhibitors, followed by shaking on a plate shaker at room temperature for 15 min. At the end of this incubation, lysed cells were sequentially treated and incubated with acceptor and donor bead mixes according to the manufacturer's protocol for a 1 plate/2-incubation suspension cell assay (AlphaLISA SureFire Ultra p-IKKa (Ser 176/180) Assay Kit (Perkin Elmer). Plates were read using an EnVision Multilabel Plate Reader (Perkin Elmer). Within an experiment, a concentration response curve for each compound was run in duplicate. The signal obtained in the test wells was normalized using high signal (BAFF stimulated cells, DMSO, MG132) and low signal (unstimulated cells, DMSO) controls. To determine the IC50, a sigmoidal curve was fitted to the plot of % inhibition versus Log10 compound concentration.
# Sequence of Recombinant Human NF-kappaB-Inducing Kinase (NIK/MAP3K14) (Q99558 whole entry): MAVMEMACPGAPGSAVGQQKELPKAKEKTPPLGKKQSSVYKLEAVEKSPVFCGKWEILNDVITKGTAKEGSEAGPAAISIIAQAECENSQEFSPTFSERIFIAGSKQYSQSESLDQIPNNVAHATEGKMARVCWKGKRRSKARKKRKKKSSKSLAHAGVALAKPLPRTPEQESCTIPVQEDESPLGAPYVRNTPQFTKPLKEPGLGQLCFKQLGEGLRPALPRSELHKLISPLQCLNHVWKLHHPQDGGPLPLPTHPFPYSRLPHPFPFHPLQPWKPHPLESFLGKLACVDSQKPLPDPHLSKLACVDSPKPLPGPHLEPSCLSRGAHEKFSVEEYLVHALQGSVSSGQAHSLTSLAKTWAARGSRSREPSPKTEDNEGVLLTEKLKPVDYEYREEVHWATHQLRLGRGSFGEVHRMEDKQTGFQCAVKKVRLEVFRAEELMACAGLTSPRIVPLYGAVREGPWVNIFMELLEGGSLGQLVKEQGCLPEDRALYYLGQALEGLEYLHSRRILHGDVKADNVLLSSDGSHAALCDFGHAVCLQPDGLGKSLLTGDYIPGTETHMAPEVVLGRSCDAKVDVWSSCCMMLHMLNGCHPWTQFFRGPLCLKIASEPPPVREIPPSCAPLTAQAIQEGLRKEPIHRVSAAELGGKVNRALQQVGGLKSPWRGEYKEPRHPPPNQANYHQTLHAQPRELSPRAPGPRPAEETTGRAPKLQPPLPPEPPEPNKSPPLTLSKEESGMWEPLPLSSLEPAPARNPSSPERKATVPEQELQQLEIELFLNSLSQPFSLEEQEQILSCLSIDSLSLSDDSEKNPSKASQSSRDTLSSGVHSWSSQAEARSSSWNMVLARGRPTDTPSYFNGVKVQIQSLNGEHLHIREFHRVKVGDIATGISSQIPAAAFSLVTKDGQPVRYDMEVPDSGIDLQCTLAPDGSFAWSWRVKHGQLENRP
Structure (SMILES),IC50 [1],IC50 [2]
"CN1CC[C@@](O)(c2cncc(-c3ccn(-c4ccnc(Nc5cnn6ccccc56)n4)n3)c2)C1=O (single isomer, unassigned) [Example 146, (R)-3-hydroxy-1-methyl-3-(5-(1-(2-(pyrazolo[1,5-a]pyridin-3-ylamino)pyrimidin-4-yl)-1H-pyrazol-3-yl)pyridin-3-yl)pyrrolidin-2-one or (S)-3-hydroxy-1-methyl-3-(5-(1-(2-(pyrazolo[1,5-a]pyridin-3-ylamino)pyrimidin-4-yl)-1H-pyrazol-3-yl)pyridin-3-yl)pyrrolidin-2-one]",< 100 nM,< 100 nM
"CN1CC[C@@](O)(c2cncc(-c3ccn(-c4ccnc(Nc5ccn(C)n5)n4)n3)c2)C1=O (single isomer, unassigned) [Example 147, (R)-3-hydroxy-1-methyl-3-(5-(1-(2-((1-methyl-1H-pyrazol-3-yl)amino)pyrimidin-4-yl)-1H-pyrazol-3-yl)pyridin-3-yl)pyrrolidin-2-one or (S)-3-hydroxy-1-methyl-3-(5-(1-(2-((1-methyl-1H-pyrazol-3-yl)amino)pyrimidin-4-yl)-1H-pyrazol-3-yl)pyridin-3-yl)pyrrolidin-2-one]",< 100 nM,100 to 500 nM
"CN1CC[C@@](O)(c2cncc(-c3ccn(-c4ccnc(Nc5cnn6cccnc56)n4)n3)c2)C1=O (single isomer, unassigned) [Example 148, (R)-3-hydroxy-1-methyl-3-(5-(1-(2-(pyrazolo[1,5-a]pyrimidin-3-ylamino)pyrimidin-4-yl)-1H-pyrazol-3-yl)pyridin-3-yl)pyrrolidin-2-one or (S)-3-hydroxy-1-methyl-3-(5-(1-(2-(pyrazolo[1,5-a]pyrimidin-3-ylamino)pyrimidin-4-yl)-1H-pyrazol-3-yl)pyridin-3-yl)pyrrolidin-2-one]",< 100 nM,> 501 nM
"CN1CC[C@@](O)(c2ccnc(-c3ccn(-c4ccnc(Nc5cnn6cccnc56)n4)n3)c2)C1=O (single isomer, unassigned) [Example 149, (R)-3-hydroxy-1-methyl-3-(2-(1-(2-(pyrazolo[1,5-a]pyrimidin-3-ylamino)pyrimidin-4-yl)-1H-pyrazol-3-yl)pyridin-4-yl)pyrrolidin-2-one or (S)-3-hydroxy-1-methyl-3-(2-(1-(2-(pyrazolo[1,5-a]pyrimidin-3-ylamino)pyrimidin-4-yl)-1H-pyrazol-3-yl)pyridin-4-yl)pyrrolidin-2-one]",< 100 nM,> 501 nM
"COc1nn(CC(F)F)cc1Nc1nccc(-n2ccc(-c3cncc([C@]4(O)CCN(C)C4=O)c3)n2)n1 (single isomer, unassigned) [Example 150, (R)-3-(5-(1-(2-((1-(2,2-difluoroethyl)-3-methoxy-1H-pyrazol-4-yl)amino)pyrimidin-4-yl)-1H-pyrazol-3-yl)pyridin-3-yl)-3-hydroxy-1-methylpyrrolidin-2-one or (S)-3-(5-(1-(2-((1-(2,2-difluoroethyl)-3-methoxy-1H-pyrazol-4-yl)amino)pyrimidin-4-yl)-1H-pyrazol-3-yl)pyridin-3-yl)-3-hydroxy-1-methylpyrrolidin-2-one]",< 100 nM,< 100 nM
"CN1CC[C@@](O)(c2ccnc(-c3csc(-c4ccnc(Nc5cnn(C)c5)n4)n3)c2)C1=O (single isomer, unassigned) [Example 151]",< 100 nM,< 100 nM
"CN1CC[C@@](O)(c2cncc(-c3csc(-c4ccnc(Nc5cnn(C)c5)n4)n3)c2)C1=O (single isomer, unassigned) [Example 152, (R)-3-hydroxy-1-methyl-3-(5-(2-(2-((1-methyl-1H-pyrazol-4-yl)amino)pyrimidin-4-yl)thiazol-4-yl)pyridin-3-yl)pyrrolidin-2-one or (S)-3-hydroxy-1-methyl-3-(5-(2-(2-((1-methyl-1H-pyrazol-4-yl)amino)pyrimidin-4-yl)thiazol-4-yl)pyridin-3-yl)pyrrolidin-2-one]",< 100 nM,100 to 500 nM
"CN1CC[C@@](O)(c2ccnc(-c3ccn(-c4ccnc(Nc5cnn6ccccc56)n4)n3)c2)C1=O (single isomer, unassigned) [Example 153, (R)-3-hydroxy-1-methyl-3-(2-(1-(2-(pyrazolo[1,5-a]pyridin-3-ylamino)pyrimidin-4-yl)-1H-pyrazol-3-yl)pyridin-4-yl)pyrrolidin-2-one or (S)-3-hydroxy-1-methyl-3-(2-(1-(2-(pyrazolo[1,5-a]pyridin-3-ylamino)pyrimidin-4-yl)-1H-pyrazol-3-yl)pyridin-4-yl)pyrrolidin-2-one]",< 100 nM,< 100 nM
"CN1CC[C@@](O)(c2ccnc(-c3ccn(-c4ccnc(Nc5cn(CC(F)F)nc5OC5CC5)n4)n3)c2)C1=O (single isomer, unassigned) [Example 154, (R)-3-(2-(1-(2-((3-cyclopropoxy-1-(2,2-difluoroethyl)-1H-pyrazol-4-yl)amino)pyrimidin-4-yl)-1H-pyrazol-3-yl)pyridin-4-yl)-3-hydroxy-1-methylpyrrolidin-2-one or (S)-3-(2-(1-(2-((3-cyclopropoxy-1-(2,2-difluoroethyl)-1H-pyrazol-4-yl)amino)pyrimidin-4-yl)-1H-pyrazol-3-yl)pyridin-4-yl)-3-hydroxy-1-methylpyrrolidin-2-one]",< 100 nM,< 100 nM
"COc1nn(CC(F)F)cc1Nc1nccc(-n2ccc(-c3cc([C@]4(O)CCN(C)C4=O)ccn3)n2)n1 (single isomer, unassigned) [Example 155, (R)-3-(2-(1-(2-((1-(2,2-difluoroethyl)-3-methoxy-1H-pyrazol-4-yl)amino)pyrimidin-4-yl)-1H-pyrazol-3-yl)pyridin-4-yl)-3-hydroxy-1-methylpyrrolidin-2-one or (S)-3-(2-(1-(2-((1-(2,2-difluoroethyl)-3-methoxy-1H-pyrazol-4-yl)amino)pyrimidin-4-yl)-1H-pyrazol-3-yl)pyridin-4-yl)-3-hydroxy-1-methylpyrrolidin-2-one]",< 100 nM,< 100 nM
"C[C@H](Nc1nccc(-c2nc(-c3cc([C@]4(O)CCN(C)C4=O)ccn3)cs2)n1)c1ccn(C)n1 (single isomer, unassigned) [Example 156, (R)-3-hydroxy-1-methyl-3-(2-(2-(2-(((S)-1-(1-methyl-1H-pyrazol-3-yl)ethyl)amino)pyrimidin-4-yl)thiazol-4-yl)pyridin-4-yl)pyrrolidin-2-one or (S)-3-hydroxy-1-methyl-3-(2-(2-(2-(((S)-1-(1-methyl-1H-pyrazol-3-yl)ethyl)amino)pyrimidin-4-yl)thiazol-4-yl)pyridin-4-yl)pyrrolidin-2-one]",< 100 nM,100 to 500 nM
"C[C@@H](Nc1nccc(-c2nc(-c3cc([C@]4(O)CCN(C)C4=O)ccn3)cs2)n1)c1ccn(C)n1 (single isomer, unassigned) [Example 157, (R)-3-hydroxy-1-methyl-3-(2-(2-(2-(((R)-1-(1-methyl-1H-pyrazol-3-yl)ethyl)amino)pyrimidin-4-yl)thiazol-4-yl)pyridin-4-yl)pyrrolidin-2-one or (S)-3-hydroxy-1-methyl-3-(2-(2-(2-(((R)-1-(1-methyl-1H-pyrazol-3-yl)ethyl)amino)pyrimidin-4-yl)thiazol-4-yl)pyridin-4-yl)pyrrolidin-2-one]",100 to 500 nM,> 501 nM
